Experimental data published in article PMC5218480 (PLoS ONE, 2017).

Tested on: MV-4-11 cells
Assay: Gene expression microarray analysis (Affymetrix PrimeView) and GSEA
Format: cell-based, human
Set-up: RFU PODN (11730768_x_at) / Fold change /veh PODN (11730768_x_at) / RFU LINC00158 (11744669_a_at) / Fold change /veh LINC00158 (11744669_a_at) / RFU DUSP10 (11751237_a_at) / Fold change /veh DUSP10 (11751237_a_at) / RFU ID3 (11757404_x_at) / Fold change /veh ID3 (11757404_x_at) / RFU PLEKHG5 (11737974_s_at) / Fold change /veh PLEKHG5 (11737974_s_at) / RFU LRRC4B (11730491_at) / Fold change /veh LRRC4B (11730491_at) / RFU GIMAP4 (11747438_a_at) / Fold change /veh GIMAP4 (11747438_a_at) / RFU KRT8 (11758183_x_at) / Fold change /veh KRT8 (11758183_x_at) / RFU CNN1 (11734310_a_at) / Fold change /veh CNN1 (11734310_a_at) / RFU VPS37D (11726825_at) / Fold change /veh VPS37D (11726825_at) / RFU C10orf10 (11716522_x_at) / Fold change /veh C10orf10 (11716522_x_at) / RFU KIR2DL2 /// KIR2DL4 /// KIR2DL5A /// KIR2DL5B /// KIR2DS1 /// KIR2DS2 /// KIR2DS3 /// KIR2DS4 /// KIR3DL3 /// KIR3DL3 /// KIR3DS1 (11738374_at) / Fold change /veh KIR2DL2 /// KIR2DL4 /// KIR2DL5A /// KIR2DL5B /// KIR2DS1 /// KIR2DS2 /// KIR2DS3 /// KIR2DS4 /// KIR3DL3 /// KIR3DL3 /// KIR3DS1 (11738374_at) / RFU C1QL1 (11718748_at) / Fold change /veh C1QL1 (11718748_at) / RFU TMPRSS4 (11747572_a_at) / Fold change /veh TMPRSS4 (11747572_a_at) / RFU HAMP (11756126_x_at) / Fold change /veh HAMP (11756126_x_at) / RFU RNFT2 (11725882_a_at) / Fold change /veh RNFT2 (11725882_a_at) / RFU NR4A2 (11747474_a_at) / Fold change /veh NR4A2 (11747474_a_at) / RFU ABCC12 (11746883_a_at) / Fold change /veh ABCC12 (11746883_a_at) / RFU TMEM136 (11760407_x_at) / Fold change /veh TMEM136 (11760407_x_at) / RFU CLDN22 /// WWC2 (11732394_at) / Fold change /veh CLDN22 /// WWC2 (11732394_at) / RFU HLA-DPB1 (11760878_x_at) / Fold change /veh HLA-DPB1 (11760878_x_at) / RFU SPINT1 (11716480_a_at) / Fold change /veh SPINT1 (11716480_a_at) / RFU GAP43 (11754022_s_at) / Fold change /veh GAP43 (11754022_s_at) / RFU A4GNT (11735810_at) / Fold change /veh A4GNT (11735810_at) / RFU PRB3 (11715151_x_at) / Fold change /veh PRB3 (11715151_x_at) / RFU TUBB4B (11761932_at) / Fold change /veh TUBB4B (11761932_at) / RFU CAPN14 (11732068_a_at) / Fold change /veh CAPN14 (11732068_a_at) / RFU TMCC2 (11721928_a_at) / Fold change /veh TMCC2 (11721928_a_at) / RFU IRGQ (11745062_a_at) / Fold change /veh IRGQ (11745062_a_at) / RFU FAM174B (11720279_a_at) / Fold change /veh FAM174B (11720279_a_at) / RFU TMPRSS4 (11748680_a_at) / Fold change /veh TMPRSS4 (11748680_a_at) / RFU FAM212B (11763350_a_at) / Fold change /veh FAM212B (11763350_a_at) / RFU PLEKHG5 (11743358_a_at) / Fold change /veh PLEKHG5 (11743358_a_at) / RFU ZSCAN30 (11745921_a_at) / Fold change /veh ZSCAN30 (11745921_a_at) / RFU CMKLR1 (11741424_a_at) / Fold change /veh CMKLR1 (11741424_a_at) / RFU LOC101060620 /// MAPK8IP1 (11723275_at) / Fold change /veh LOC101060620 /// MAPK8IP1 (11723275_at) / RFU SPTSSB (11747773_x_at) / Fold change /veh SPTSSB (11747773_x_at) / RFU PRSS12 (11739890_at) / Fold change /veh PRSS12 (11739890_at) / RFU BIN1 (11741810_x_at) / Fold change /veh BIN1 (11741810_x_at) / RFU WNT11 (11732464_a_at) / Fold change /veh WNT11 (11732464_a_at) / RFU C10orf10 (11716521_a_at) / Fold change /veh C10orf10 (11716521_a_at) / RFU C5orf56 (11738089_at) / Fold change /veh C5orf56 (11738089_at) / RFU CYB561 (11721691_x_at) / Fold change /veh CYB561 (11721691_x_at) / RFU ANKRD19P (11752326_a_at) / Fold change /veh ANKRD19P (11752326_a_at) / RFU OR2T12 /// OR2T33 /// OR2T8 (11738714_s_at) / Fold change /veh OR2T12 /// OR2T33 /// OR2T8 (11738714_s_at) / RFU VCAN (11748164_a_at) / Fold change /veh VCAN (11748164_a_at) / RFU JSRP1 (11732532_at) / Fold change /veh JSRP1 (11732532_at) / RFU KRTAP10-11 (11738290_x_at) / Fold change /veh KRTAP10-11 (11738290_x_at) / RFU MYO3A (11730013_a_at) / Fold change /veh MYO3A (11730013_a_at) / RFU EBF3 (11725865_a_at) / Fold change /veh EBF3 (11725865_a_at) / RFU CAMK2N1 (11719241_x_at) / Fold change /veh CAMK2N1 (11719241_x_at) / RFU C5orf56 (11738088_a_at) / Fold change /veh C5orf56 (11738088_a_at) / RFU OLFML3 (11715873_a_at) / Fold change /veh OLFML3 (11715873_a_at) / RFU LOC100653217 /// NTM (11731650_a_at) / Fold change /veh LOC100653217 /// NTM (11731650_a_at) / RFU MAPK11 (11762145_a_at) / Fold change /veh MAPK11 (11762145_a_at) / RFU FIZ1 (11724087_x_at) / Fold change /veh FIZ1 (11724087_x_at) / RFU OASL (11726364_x_at) / Fold change /veh OASL (11726364_x_at) / RFU SOX15 (11748057_x_at) / Fold change /veh SOX15 (11748057_x_at) / RFU CD79A (11719716_a_at) / Fold change /veh CD79A (11719716_a_at) / RFU HIST1H1D (11736915_at) / Fold change /veh HIST1H1D (11736915_at) / RFU CASKIN2 (11723855_a_at) / Fold change /veh CASKIN2 (11723855_a_at) / RFU LOC730098 (11760151_x_at) / Fold change /veh LOC730098 (11760151_x_at) / RFU OR4N2 (11742367_at) / Fold change /veh OR4N2 (11742367_at) / RFU PRRT2 (11749266_a_at) / Fold change /veh PRRT2 (11749266_a_at) / RFU SNX32 (11753110_a_at) / Fold change /veh SNX32 (11753110_a_at) / RFU CDHR5 (11726645_a_at) / Fold change /veh CDHR5 (11726645_a_at) / RFU RCAN1 (11760418_a_at) / Fold change /veh RCAN1 (11760418_a_at) / RFU FAM167A (11723789_a_at) / Fold change /veh FAM167A (11723789_a_at) / RFU FAM26E (11764081_at) / Fold change /veh FAM26E (11764081_at) / RFU ISYNA1 (11749810_s_at) / Fold change /veh ISYNA1 (11749810_s_at) / RFU ACY1 (11761880_at) / Fold change /veh ACY1 (11761880_at) / RFU 11764098_at / Fold change /veh 11764098_at / RFU SAMD14 (11745864_x_at) / Fold change /veh SAMD14 (11745864_x_at) / RFU NPB (11741838_a_at) / Fold change /veh NPB (11741838_a_at) / RFU TMPRSS6 (11731388_a_at) / Fold change /veh TMPRSS6 (11731388_a_at) / RFU KRTAP10-2 (11738614_at) / Fold change /veh KRTAP10-2 (11738614_at) / RFU ARHGAP8 /// PRR5-ARHGAP8 (11727945_x_at) / Fold change /veh ARHGAP8 /// PRR5-ARHGAP8 (11727945_x_at) / RFU KRTAP5-7 /// NADSYN1 (11734609_at) / Fold change /veh KRTAP5-7 /// NADSYN1 (11734609_at) / RFU RASL12 (11751679_a_at) / Fold change /veh RASL12 (11751679_a_at) / RFU CDKN2B (11736163_a_at) / Fold change /veh CDKN2B (11736163_a_at) / RFU PRF1 (11729649_at) / Fold change /veh PRF1 (11729649_at) / RFU, ZNF638 /// ZNF638-IT1 / Fold change vs veh, ZNF638 /// ZNF638-IT1 / RFU, PANK3 / Fold change vs veh, PANK3 / RFU, SH3YL1 / Fold change vs veh, SH3YL1 / RFU, ZEB2 / Fold change vs veh, ZEB2 / RFU, NRIP1 / Fold change vs veh, NRIP1 / RFU, PTTG1IP / Fold change vs veh, PTTG1IP / RFU, CAPN2 / Fold change vs veh, CAPN2 / RFU, MED14 / Fold change vs veh, MED14 / RFU, SNORA58 / Fold change vs veh, SNORA58 / RFU, C1orf63 / Fold change vs veh, C1orf63 / RFU, LRRFIP1 / Fold change vs veh, LRRFIP1 / RFU, NDUFAF7 / Fold change vs veh, NDUFAF7 / RFU, SLC12A2 / Fold change vs veh, SLC12A2 / RFU, IBTK / Fold change vs veh, IBTK / RFU, ESF1 / Fold change vs veh, ESF1 / Fold change vs veh, TMEM50B / RFU, TAOK1 / Fold change vs veh, TAOK1 / RFU, ACBD3 / Fold change vs veh, ACBD3 / RFU, TMA16 / Fold change vs veh, TMA16 / RFU, RWDD3 / Fold change vs veh, RWDD3 / RFU, BCAT1 / Fold change vs veh, BCAT1 / RFU, EDEM3 / Fold change vs veh, EDEM3 / RFU, TMEM33 / Fold change vs veh, TMEM33 / RFU, WDR75 / Fold change vs veh, WDR75 / RFU, AHCTF1 / Fold change vs veh, AHCTF1 / RFU, TFRC / Fold change vs veh, TFRC / RFU, ZDHHC17 / Fold change vs veh, ZDHHC17 / RFU, NOM1 / Fold change vs veh, NOM1 / RFU, ARL8B / Fold change vs veh, ARL8B / RFU, ZBTB11 / Fold change vs veh, ZBTB11 / RFU, TAMM41 / Fold change vs veh, TAMM41 / RFU, KIAA1704 /// LOC100996395 / Fold change vs veh, KIAA1704 /// LOC100996395 / RFU, ING1 / Fold change vs veh, ING1 / RFU, TRMT61B / Fold change vs veh, TRMT61B / RFU, FUBP3 / Fold change vs veh, FUBP3 / RFU, TP53 / Fold change vs veh, TP53 / RFU, TNKS2 / Fold change vs veh, TNKS2 / RFU, ZFP14 / Fold change vs veh, ZFP14 / RFU, ACTR2 / Fold change vs veh, ACTR2 / RFU, PPP3R1 / Fold change vs veh, PPP3R1 / RFU, PIK3R1 / Fold change vs veh, PIK3R1 / RFU, HNRNPA1 / Fold change vs veh, HNRNPA1 / RFU, RNF170 / Fold change vs veh, RNF170 / RFU, ZNF28 / Fold change vs veh, ZNF28 / RFU, RNGTT / Fold change vs veh, RNGTT / RFU, OGT / Fold change vs veh, OGT / RFU, BRD1 / Fold change vs veh, BRD1 / RFU, MARS / Fold change vs veh, MARS / RFU, ZNF655 / Fold change vs veh, ZNF655 / RFU, FAHD1 / Fold change vs veh, FAHD1 / RFU, BDP1 / Fold change vs veh, BDP1 / RFU, LRRCC1 / Fold change vs veh, LRRCC1 / RFU, ARID1A / Fold change vs veh, ARID1A / RFU, ZNF146 / Fold change vs veh, ZNF146 / RFU, ZNF330 / Fold change vs veh, ZNF330 / RFU, GPN3 / Fold change vs veh, GPN3 / RFU, C9orf123 / Fold change vs veh, C9orf123 / RFU, N4BP2L2 / Fold change vs veh, N4BP2L2 / RFU, ARFIP1 / Fold change vs veh, ARFIP1 / RFU, FAM179B / Fold change vs veh, FAM179B / RFU, BCL10 / Fold change vs veh, BCL10 / RFU, UHRF1BP1L / Fold change vs veh, UHRF1BP1L / RFU, BET1 / Fold change vs veh, BET1 / RFU, CNOT2 / Fold change vs veh, CNOT2 / RFU, ZNF268 / Fold change vs veh, ZNF268 / Fold change vs veh, ZNF507 / RFU, DGCR2 / Fold change vs veh, DGCR2 / RFU, WDSUB1 / Fold change vs veh, WDSUB1 / Fold change vs veh, HSP90B1 /// MIR3652 / RFU, ADSS / Fold change vs veh, ADSS / RFU, GK / Fold change vs veh, GK / RFU, ZNF148 / Fold change vs veh, ZNF148 / RFU, TAF9 / Fold change vs veh, TAF9 / RFU, SLC1A5 / Fold change vs veh, SLC1A5 / RFU, SLMO2 / Fold change vs veh, SLMO2 / RFU, ABCC4 / Fold change vs veh, ABCC4 / RFU, LOC101060439 /// RAP1B / Fold change vs veh, LOC101060439 /// RAP1B / RFU, RFX7 / Fold change vs veh, RFX7 / RFU, GTPBP10 / Fold change vs veh, GTPBP10 / RFU, CNEP1R1 / Fold change vs veh, CNEP1R1 / RFU, BIVM-ERCC5 /// ERCC5 / Fold change vs veh, BIVM-ERCC5 /// ERCC5 / RFU, ILF3 / Fold change vs veh, ILF3 / RFU 11762660_at / Fold change /veh 11762660_at / RFU VCAN (11757783_s_at) / Fold change /veh VCAN (11757783_s_at) / RFU DDX43 (11728927_at) / Fold change /veh DDX43 (11728927_at) / RFU KRT8 (11758188_x_at) / Fold change /veh KRT8 (11758188_x_at) / RFU NKD1 (11759106_at) / Fold change /veh NKD1 (11759106_at) / RFU SRD5A1 (11742802_a_at) / Fold change /veh SRD5A1 (11742802_a_at) / RFU TPSAB1 /// TPSB2 (11721975_s_at) / Fold change /veh TPSAB1 /// TPSB2 (11721975_s_at) / RFU GSTM3 (11746129_a_at) / Fold change /veh GSTM3 (11746129_a_at) / RFU IL23R (11737362_x_at) / Fold change /veh IL23R (11737362_x_at) / RFU TMEM51 (11727254_a_at) / Fold change /veh TMEM51 (11727254_a_at) / RFU PIWIL2 (11732686_x_at) / Fold change /veh PIWIL2 (11732686_x_at) / RFU ORM1 (11744905_x_at) / Fold change /veh ORM1 (11744905_x_at) / RFU CCDC152 (11743942_at) / Fold change /veh CCDC152 (11743942_at) / RFU ECM1 (11717891_a_at) / Fold change /veh ECM1 (11717891_a_at) / RFU IL23R (11748794_a_at) / Fold change /veh IL23R (11748794_a_at) / RFU TNFAIP8L3 (11732012_x_at) / Fold change /veh TNFAIP8L3 (11732012_x_at) / RFU MBOAT4 (11741988_at) / Fold change /veh MBOAT4 (11741988_at) / RFU 11764193_at / Fold change /veh 11764193_at / RFU TMEM53 (11763286_at) / Fold change /veh TMEM53 (11763286_at) / RFU MAGEB2 (11727129_at) / Fold change /veh MAGEB2 (11727129_at) / RFU TMEM200A (11744735_a_at) / Fold change /veh TMEM200A (11744735_a_at) / RFU CCDC152 (11751479_a_at) / Fold change /veh CCDC152 (11751479_a_at) / RFU FAM211A (11726209_a_at) / Fold change /veh FAM211A (11726209_a_at) / RFU RGS16 (11746705_a_at) / Fold change /veh RGS16 (11746705_a_at) / RFU VCAN (11755009_s_at) / Fold change /veh VCAN (11755009_s_at) / RFU RHOB (11743442_s_at) / Fold change /veh RHOB (11743442_s_at) / RFU RGS16 (11720943_a_at) / Fold change /veh RGS16 (11720943_a_at) / RFU RGS16 (11720944_at) / Fold change /veh RGS16 (11720944_at) / RFU, VPS4B / Fold change vs veh, VPS4B / RFU, CREB1 / Fold change vs veh, CREB1 / RFU, DNAJC13 / Fold change vs veh, DNAJC13 / RFU, GNAQ / Fold change vs veh, GNAQ / RFU, CDK5R1 / Fold change vs veh, CDK5R1 / RFU, ZRANB3 / Fold change vs veh, ZRANB3 / RFU, CUL4A / Fold change vs veh, CUL4A / RFU, CCNY / Fold change vs veh, CCNY / RFU, UFL1 / Fold change vs veh, UFL1 / RFU, COG3 / Fold change vs veh, COG3 / RFU, DIAPH2 / Fold change vs veh, DIAPH2 / RFU, SKA2 / Fold change vs veh, SKA2 / RFU, AFF3 / Fold change vs veh, AFF3 / RFU, LMF1 / Fold change vs veh, LMF1 / RFU, IPO11 / Fold change vs veh, IPO11 / RFU, DFFB / Fold change vs veh, DFFB / RFU, FOXP1 / Fold change vs veh, FOXP1 / RFU, CARD8 / Fold change vs veh, CARD8 / RFU, STRN3 / Fold change vs veh, STRN3 / RFU, ADK / Fold change vs veh, ADK / RFU, RASSF2 / Fold change vs veh, RASSF2 / RFU, WIPF1 / Fold change vs veh, WIPF1 / RFU, LARP1B / Fold change vs veh, LARP1B / RFU, RASA1 / Fold change vs veh, RASA1 / RFU, RB1 / Fold change vs veh, RB1 / RFU, PPFIA1 / Fold change vs veh, PPFIA1 / RFU, MAT2A / Fold change vs veh, MAT2A / RFU, CCT5 / Fold change vs veh, CCT5 / RFU, WDR92 / Fold change vs veh, WDR92 / RFU, CUX1 / Fold change vs veh, CUX1 / RFU, TTC7A / Fold change vs veh, TTC7A / RFU, TMEM135 / Fold change vs veh, TMEM135 / RFU, DEPTOR / Fold change vs veh, DEPTOR / RFU, CPM / Fold change vs veh, CPM / RFU, DNAJB6 / Fold change vs veh, DNAJB6 / RFU, CACNA2D3 / Fold change vs veh, CACNA2D3 / RFU, DTX4 / Fold change vs veh, DTX4 / RFU, TFCP2 / Fold change vs veh, TFCP2 / RFU, GMCL1 /// GMCL1P1 / Fold change vs veh, GMCL1 /// GMCL1P1 / RFU, AEBP2 / Fold change vs veh, AEBP2 / RFU, SNHG1 /// SNORD22 /// SNORD25 /// SNORD26 /// SNORD27 /// SNORD28 /// SNORD29 /// SNORD31 / Fold change vs veh, SNHG1 /// SNORD22 /// SNORD25 /// SNORD26 /// SNORD27 /// SNORD28 /// SNORD29 /// SNORD31 / Fold change (Aza/veh), C12orf56 (ProbeSet 11735607_a_at) / Fold change (ACY-1035/veh), C12orf56 (ProbeSet 11735607_a_at) / Fold change (Aza/veh), FGFR1OP (ProbeSet 11751329_s_at) / Fold change (ACY-1035/veh), FGFR1OP (ProbeSet 11751329_s_at) / Fold change (Aza/veh), VPS36 (ProbeSet 11739960_a_at) / Fold change (ACY-1035/veh), VPS36 (ProbeSet 11739960_a_at) / RFU SYPL1 (11715823_x_at) / Fold change /veh SYPL1 (11715823_x_at) / RFU IGFBP7 (11715501_s_at) / Fold change /veh IGFBP7 (11715501_s_at) / RFU REEP3 (11722064_at) / Fold change /veh REEP3 (11722064_at) / RFU IGLL1 (11728026_x_at) / Fold change /veh IGLL1 (11728026_x_at): dose or concentration left out as unconfirmed
Details: ProbeSet 11723930_at; LIST D

Nc1ccc(-c2cccs2)cc1NC(=O)c1ccc2c(c1)cc(C1CC1)n2CCN1CCOCC1 [ACY-1035]
RFU, CCT5: 132.28 RFU
